Literature values, collected in patent US20220160797A1 (North Carolina State University, priority 2019, published 2022).

Tested on: L. acidophilus NCFM
Settings: grown on esculin compared to lactose

O=c1ccc2cc(O[C@@H]3O[C@H](CO)[C@@H](O)[C@H](O)[C@H]3O)c(O)cc2o1 [esculin]
up-regulation of gene lba0753: 2.3 log2
